Experimental data as given in patent US8833306B2, “PACAP for aquatic organism culture” (priority 2005, dated 2014).
No end group written: not given here.

Key:
[1] = tested on: tilapia Oreochromis niloticus; assay: Effect of recombinant PACAP on juvenile tilapia appetite (ingested food); format: in vivo; conditions: i.p. 0.1 μg/g; 6 hours and 22 hours; p<0.05
Description: To analyze the effect of the PACAP in the fish appetite, we used tilapia of the Oreochromis niloticus species, without sex distinction and approximately the same average body weight. Three experimental groups were formed having 3 individuals in each and 3 replicates per group. The groups were acclimated in separated tanks with stable water recirculation, to a temperature of 28° C. and with the photoperiod of 14 hours light and 10 hours dark. […] The second group was treated with the GHRP-6 (Lipotec, S.A, Spain) by the same administration via at the dose of 0.1 μg of the peptide by gram of the animal corporal weight. The control group was treated with E. coli proteins contained in PBS 1× (E. coli proteins were obtained by the same purification procedure of the interest peptide, with the amount equivalent of the contaminants presents in the purified PACAP sample). After the treatments, the same amount of food was added to the three experimental groups, collecting the non ingested food in 6 hour and adding food again. The appetite was measured again, 22 hours from the beginning of the experiment. The food not ingested in each tank was dried in the stove (100° C., during 24 h) and was weighed in an analytical balance. The ingested food was calculated determining the difference between the food added to the tanks (10 grams, with a 20% of humidity) and the food not ingested by the fish.

[2] = tested on: juvenile Clarias gariepinus; assay: Growth stimulation in Clarias gariepinus by recombinant PACAP in the fish diet; format: in vivo; conditions: in the diet at 5 mg/Kg of feed; 30 days; p<0.01
Description: The Pichia pastoris culture supernatant containing the recombinant PACAP (SEQ ID No. 14) was concentrated and formulated in the nutritional fish diet to a concentration of approximately 5 mg/Kg of feed. Two experimental groups were formed having 100 larvae in each with an average body weight of 0.1 g. One group was treated with recombinant PACAP (SEQ ID No. 14) containing in P. pastoris culture supernatants and the other used as a control group was treated with non-transformed P. pastoris culture supernatant. The experiment was carried out during 30 days.

Substance: GHRP-6
- appetite (ingested food) compared with control group [1]: significant appetite increase

Substance: PACAP (SEQ ID No. 14): Clarias gariepinus recombinant PACAP variant contained in P. pastoris culture supernatants; used in Examples 6-8 (HSDGIFTDSYSRYRKQMAVKKYLAAVLGRRYRQRFRNK; ends and bridges not checked; listed as Clarias gariepinus)
- growth increase compared with control group [2]: 30%
